Tested on: 425362-245-T-J1 tumor spheroids, viability % test/control
Assay: Anticancer human tumor 425362-245-T-J1 patient-derived melanoma cell line growth inhibition
Details: spheroids with HUVEC and MSC; for IC50: curve of first compound; for viability, T/C: stronger effect = lower value
Source text: Multicellular complex tumor spheroid response to DNA repair inhibitors in combination with DNA-damaging drugs
This study explores the anticancer activities of DNA-damaging drugs and inhibitors of DNA damage repair, both as single agents and in combinations. Complex tumor spheroids comprised of malignant cells, endothelial cells and mesenchymal stem cells served as an in vitro model for human solid tumors. This model system incorporates physiologically relevant features and patient-derived or established malignant cell lines with clinically relevant genetic alterations from many tumor types. Twenty-six patient-derived or established malignant cell lines were evaluated representing sarcoma, melanoma, small cell lung cancer (SCLC), non-small cell lung cancer (NSCLC), as well as bladder, ovarian and pancreatic cancers. The concentration ranges selected for each drug and investigational agent were based upon clinically achievable concentrations if the clinical Cmax of the agent was known.
Compounds. The drugs and compounds olaparib (NSC753686), talazoparib (NSC767125), berzosertib (NSC777718), elimusertib (NSC800525), nedisertib (NSC802822), VX-984 (NSC792969), AZD-1390 (NSC803789), temozolomide (NSC362856), topotecan (NSC609699), trabectedin (NSC813783), staurosporine (NSC755774), and gemcitabine (NSC613327) were obtained from the National Cancer Institute (NCI) Developmental Therapeutics Program Chemical Repository. The FDA-approved anticancer drug set is available from the Developmental Therapeutics Program at https://dtp.cancer.gov/organization/dscb/obtaining/available_plates.htm. […] The stock solutions were prepared in dimethyl sulfoxide (DMSO, Sigma-Aldrich, St. Louis, MO, cat. D2650) at 400-fold the tested concentration and stored at -70 degrees C. Prior to their use, the stock solutions were diluted in fresh medium and the final DMSO concentration in the assay was 0.25% (v/v). All drugs and investigational agents were tested over a range starting from a high concentration at or near the clinical Cmax and decreasing in half-log increments. If the clinical Cmax for an agent had not been determined, the highest concentration tested was 10 microM.
Cell Lines. The patient-derived cancer cell (PDC) lines: 156681-154-R-J1-PDC, 283228-195-R-J1-PDC, 287954-098-R-J1-PDC, 292921-168-R-J2-PDC, 349418-098-R-PDC, 425362-245-T-J1-PDC, 556581-035-R-J1-PDC, and BL0293-F563-PDC were received from the NCI Patient-Derived Models Repository (PDMR, https://pdmr.cancer.gov). The established cell lines HS-SY-2 (RRID:CVCL_8719), MPNST, and SYO-1 (RRID:CVCL_7146) were obtained from the Sloan Kettering Institute. The alveolar soft parts sarcoma cell line ASPS-1 (RRID:CVCL_S738) was established at the NCI and grown from internal seed stocks. The following established cell lines were purchased from the American Type Culture Collection (ATCC, Manassas, VA): G-401 (ATCC, cat. CRL-1441, RRID:CVCL_0270), SW982 (ATCC, cat. HTB-93, RRID:CVCL_1734), VA-ES-BJ (ATCC, cat. CRL-2138, RRID:CVCL_1785), NCI-H719 (ATCC, cat. CRL-5837, RRID:CVCL_1582), NCI-H196 (ATCC, cat. CRL-5823, RRID:CVCL_1509), NCI-H841 (ATCC, cat. CRL-5845, RRID:CVCL_1595), NCI-H1618 (ATCC, cat. CRL-5879, RRID:CVCL_1480), NCI-H1876 (ATCC, cat. CRL-5902, RRID:CVCL_1503), DMS 114 (ATCC, cat. CRL-2066; RRID:CVCL_1174), NCI-H211 (ATCC, cat. CRL-5824; RRID:CVCL_1529), and SW 1271 (ATCC, cat. CRL-2177, RRID:CVCL_1716). The small cell lung cancer cell line COR-L88 was purchased from Sigma-Aldrich (cat. 92031917-1VL, RRID:CVCL_1141). The non-small cell lung cancer cell lines NCI-H226 (RRID:CVCL_1544) and NCI-H322M (RRID:CVCL_1557) were established at the NCI and grown from internal seed stocks. Pooled donor human umbilical vein endothelial cells (HUVEC, Lonza, cat. CC-2519) and human mesenchymal stem cells (hMSC, Lonza, cat. PT-2501) were purchased from Lonza (Walkersville, MD).
Cell Culture. All cells were maintained in an incubator at 37 degrees C and 5% CO2 with 95% humidity. […]
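Also: spheroids exposed to agents for 7 days.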
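For viability, T/C in this document: 100% = DMSO vehicle control viability.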

`Cc1cc(C)c(CNC(=O)c2cc(-c3ccc(CN4CCOCC4)cc3)cc3c2cnn3C2CCCC2)c(=O)[nH]1` + CC[C@@]1(O)C(=O)OCc2c1cc1n(c2=O)Cc2cc3c(CN(C)C)c(O)ccc3nc2-1 was tested, and the IC50 (second compound 0.003 µM) was 3210 nM, the IC50 (second compound 0.00949 µM) was 1960 nM and the IC50 (second compound 0.03 µM) was less than 31.6 nM. The IC50 (second compound 0.0949 µM) was less than 31.6 nM, the IC50 (second compound 0.3 µM) was less than 31.6 nM and the viability, T/C (second compound 0.003 µM, first compound 0.0316 µM) was 103%. It also gave a viability, T/C (second compound 0.003 µM, first compound 0.1 µM) of 81.8%, a viability, T/C (second compound 0.003 µM, first compound 0.316 µM) of 84% and a viability, T/C (second compound 0.003 µM, first compound 1 µM) of 72.9%. It also gave a viability, T/C (second compound 0.003 µM, first compound 3.16 µM) of 53.1%, a viability, T/C (second compound 0.003 µM, first compound 10 µM) of 10.1% and a viability, T/C (second compound 0.00949 µM, first compound 0.0316 µM) of 81.9%. It also gave a viability, T/C (second compound 0.00949 µM, first compound 0.1 µM) of 75%, a viability, T/C (second compound 0.00949 µM, first compound 0.316 µM) of 79.8% and a viability, T/C (second compound 0.00949 µM, first compound 1 µM) of 54.1%. It also gave a viability, T/C (second compound 0.00949 µM, first compound 3.16 µM) of 45.2%, a viability, T/C (second compound 0.00949 µM, first compound 10 µM) of 16.8% and a viability, T/C (second compound 0.03 µM, first compound 0.0316 µM) of 32.9%. It also gave a viability, T/C (second compound 0.03 µM, first compound 0.1 µM) of 37.2%, a viability, T/C (second compound 0.03 µM, first compound 0.316 µM) of 35.6% and a viability, T/C (second compound 0.03 µM, first compound 1 µM) of 33.1%. The viability, T/C (second compound 0.03 µM, first compound 3.16 µM) was 11.7%, the viability, T/C (second compound 0.03 µM, first compound 10 µM) was 7.5% and the viability, T/C (second compound 0.0949 µM, first compound 0.0316 µM) was 6%. It also gave a viability, T/C (second compound 0.0949 µM, first compound 0.1 µM) of 6.44%, a viability, T/C (second compound 0.0949 µM, first compound 0.316 µM) of 4.34% and a viability, T/C (second compound 0.0949 µM, first compound 1 µM) of 5.8%. It also gave a viability, T/C (second compound 0.0949 µM, first compound 3.16 µM) of 5.25%, a viability, T/C (second compound 0.0949 µM, first compound 10 µM) of 6.46% and a viability, T/C (second compound 0.3 µM, first compound 0.0316 µM) of 1.9%. For the same molecule, the viability, T/C (second compound 0.3 µM, first compound 0.1 µM) was 2.19%, the viability, T/C (second compound 0.3 µM, first compound 0.316 µM) was 2.16% and the viability, T/C (second compound 0.3 µM, first compound 1 µM) was 2.06%. It also gave a viability, T/C (second compound 0.3 µM, first compound 3.16 µM) of 2.3% and a viability, T/C (second compound 0.3 µM, first compound 10 µM) of 2.37%.
With `Cc1sc2c(c1C)C(c1ccc(Cl)cc1)=NC(CC(=O)Nc1ccc(O)cc1)c1nnc(C)n1-2` (stereo not given) + CC[C@@]1(O)C(=O)OCc2c1cc1n(c2=O)Cc2cc3c(CN(C)C)c(O)ccc3nc2-1 the IC50 (second compound 0.003 µM) was 55 nM, the IC50 (second compound 0.00949 µM) was 52.3 nM and the IC50 (second compound 0.03 µM) was less than 9.49 nM. It also gave an IC50 (second compound 0.0949 µM) of less than 9.49 nM, an IC50 (second compound 0.3 µM) of less than 9.49 nM and a viability, T/C (second compound 0.003 µM, first compound 0.00949 µM) of 90.7%. It also gave a viability, T/C (second compound 0.003 µM, first compound 0.03 µM) of 67.6%, a viability, T/C (second compound 0.003 µM, first compound 0.0949 µM) of 35% and a viability, T/C (second compound 0.003 µM, first compound 0.3 µM) of 7.09%. The viability, T/C (second compound 0.003 µM, first compound 0.949 µM) was 2.44%, the viability, T/C (second compound 0.003 µM, first compound 3 µM) was 1.89% and the viability, T/C (second compound 0.00949 µM, first compound 0.00949 µM) was 78.9%. It also gave a viability, T/C (second compound 0.00949 µM, first compound 0.03 µM) of 68.7%, a viability, T/C (second compound 0.00949 µM, first compound 0.0949 µM) of 30% and a viability, T/C (second compound 0.00949 µM, first compound 0.3 µM) of 9.43%. It also gave a viability, T/C (second compound 0.00949 µM, first compound 0.949 µM) of 2.81%, a viability, T/C (second compound 0.00949 µM, first compound 3 µM) of 2.08% and a viability, T/C (second compound 0.03 µM, first compound 0.00949 µM) of 36%. For the same molecule, the viability, T/C (second compound 0.03 µM, first compound 0.03 µM) was 24.5%, the viability, T/C (second compound 0.03 µM, first compound 0.0949 µM) was 20.9% and the viability, T/C (second compound 0.03 µM, first compound 0.3 µM) was 8.2%. For the same molecule, the viability, T/C (second compound 0.03 µM, first compound 0.949 µM) was 2.92%, the viability, T/C (second compound 0.03 µM, first compound 3 µM) was 1.49% and the viability, T/C (second compound 0.0949 µM, first compound 0.00949 µM) was 6.49%. It also gave a viability, T/C (second compound 0.0949 µM, first compound 0.03 µM) of 7.18%, a viability, T/C (second compound 0.0949 µM, first compound 0.0949 µM) of 5.96% and a viability, T/C (second compound 0.0949 µM, first compound 0.3 µM) of 2%. The viability, T/C (second compound 0.0949 µM, first compound 0.949 µM) was 1.05%, the viability, T/C (second compound 0.0949 µM, first compound 3 µM) was 1.03% and the viability, T/C (second compound 0.3 µM, first compound 0.00949 µM) was 2.2%. It also gave a viability, T/C (second compound 0.3 µM, first compound 0.03 µM) of 1.82%, a viability, T/C (second compound 0.3 µM, first compound 0.0949 µM) of 1.38% and a viability, T/C (second compound 0.3 µM, first compound 0.3 µM) of 1.33%. It also gave a viability, T/C (second compound 0.3 µM, first compound 0.949 µM) of 0.79% and a viability, T/C (second compound 0.3 µM, first compound 3 µM) of 0.59%.

Reference: PubChem BioAssay AID1845198 (Molecular Pharmacology Branch, DTP, NCI, 2023)
